Test systems include IGROV-1; Hs-578T; NCI-H522; HT-29; UO-31; MDA-MB-231; HOP-62; BT-549; SF-539; SW-620; KM12; PC-3; K562; SK-MEL-28; NCI-H226; M14; HL-60; SF-295; SN12C; SF-268.
Assay in all cases: NCI tumour cell line growth inhibition, 48 h

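A five-concentration, 48-hour dose response in 96-well plates underlies each endpoint, interpolated linearly between surrounding concentrations. GI50 = concentration required for 50% inhibition of growth.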 The source made the active and inactive calls. Cut-off read from the data, not from the text of the source: active = GI50 up to about 1.1 µM and inactive = higher. Where only a bound is given, the exact number is not on record here.

For the compound `COc1nc(OC)nc(-c2cccc(F)c2)n1`, the GI50 in the test on IGROV-1 was 16.1 µM (inactive); in the test with Hs-578T, 32.1 µM (inactive); in the test on NCI-H522, 18.7 µM (inactive); in the test on HT-29 it was 17.1 µM (inactive); in the test on UO-31, 16.6 µM (inactive); in the test on MDA-MB-231, 14.5 µM (inactive). Also, the GI50 in the test with HOP-62 is 20.4 µM (inactive); in the test with BT-549, 14 µM (inactive); with SF-539, 17.4 µM (inactive); in the test on SW-620 it was 17.7 µM (inactive); with KM12, 15.7 µM (inactive); in the test with PC-3, 19.3 µM (inactive). For the same compound, the GI50 was 18.1 µM (inactive) with K562; 19 µM (inactive) in the test with SK-MEL-28; 13.4 µM (inactive) with NCI-H226; 18 µM (inactive) in the test with M14; 24.3 µM (inactive) in the test on HL-60; 13.4 µM (inactive) in the test on SF-295. Also, the GI50 with SN12C was 16.2 µM (inactive); in the test with SF-268, 14 µM (inactive).
With `O=C1/C(=C/c2ccc3c(c2)OCO3)Sc2scc(-c3ccc(O)c(O)c3)[n+]21`, the GI50 with IGROV-1 is 2.7 µM (inactive); in the test on Hs-578T, 7.13 µM (inactive); in the test with NCI-H522, 1.04 µM (active); in the test on HT-29 it was 3.74 µM (inactive); in the test with UO-31, 2.29 µM (inactive); in the test on MDA-MB-231, 3.54 µM (inactive). Also, the GI50 in the test on HOP-62 is 6.44 µM (inactive); in the test on BT-549, 2.04 µM (inactive); in the test with SF-539, 2.31 µM (inactive); with SW-620 it was 1.99 µM (inactive); in the test with KM12 it was 2.65 µM (inactive); in the test with PC-3, 4.38 µM (inactive). For the same compound, the GI50 with K562 is 0.506 µM (active); in the test on SK-MEL-28, 3.08 µM (inactive); with NCI-H226 it was 13.3 µM (inactive); in the test with M14, 3 µM (inactive); with HL-60, 0.325 µM (active); with SF-295, 10 µM (inactive). Besides, the GI50 with SN12C is 2.04 µM (inactive); with SF-268, 3.9 µM (inactive).
`COc1ccc(N2C(=O)C3ON(C(C(N)=O)c4ccccc4)C(c4ccc(-c5ccccc5)cc4)C3C2=O)cc1` (stereo not given): the GI50 with IGROV-1 is 48.8 µM (inactive); in the test on Hs-578T, > 50 µM (inactive); in the test with NCI-H522 it was 48.3 µM (inactive); in the test on HT-29 it was 24.8 µM (inactive); in the test on UO-31 it was > 50 µM (inactive); with MDA-MB-231, > 50 µM (inactive). The GI50 with HOP-62, in the test on BT-549, in the test with SF-539, in the test on SW-620, in the test with KM12 and in the test on PC-3 was > 50 µM (inactive) in each case. In addition, the GI50 in the test with K562 is > 50 µM (inactive); in the test on SK-MEL-28, > 50 µM (inactive); with NCI-H226 it was > 50 µM (inactive); with M14, 48.4 µM (inactive); in the test with HL-60, > 50 µM (inactive); with SF-295, > 50 µM (inactive). In addition, the GI50 in the test on SN12C and in the test on SF-268 was > 50 µM (inactive) throughout.
With `CCOC(=O)C(C)c1nc2cc(N3CCN(C)CC3)c(F)cc2[nH]c1=O` (stereo not given), the GI50 was > 100 µM (inactive) in the test with IGROV-1; > 100 µM (inactive) in the test on Hs-578T; 40.5 µM (inactive) with NCI-H522; > 100 µM (inactive) in the test on HT-29; > 100 µM (inactive) in the test on UO-31; > 100 µM (inactive) in the test on MDA-MB-231. The GI50 in the test with HOP-62, in the test on BT-549, in the test on SF-539, in the test with SW-620, with KM12 and with PC-3 was > 100 µM (inactive) in each case. Further, the GI50 in the test on K562, with SK-MEL-28, in the test with NCI-H226, in the test on M14, with HL-60 and in the test on SF-295 was > 100 µM (inactive) each time. For the same compound, the GI50 in the test with SN12C and with SF-268 was > 100 µM (inactive) in each case.
With `N#CCc1nc(-c2cc3ccc(O)cc3oc2=O)cs1`, the GI50 in the test with IGROV-1 was 49.1 µM (inactive); in the test on Hs-578T it was 66.1 µM (inactive); in the test with NCI-H522, > 100 µM (inactive); in the test on HT-29, 72.9 µM (inactive); in the test on UO-31, 37.2 µM (inactive); with MDA-MB-231 it was 95.1 µM (inactive). Further, the GI50 in the test on HOP-62 is > 100 µM (inactive); in the test with BT-549, 25.2 µM (inactive); in the test with SF-539 it was 69.3 µM (inactive); in the test with SW-620 it was 39.6 µM (inactive); in the test on KM12, 28.5 µM (inactive); in the test with PC-3, 34.3 µM (inactive). For the same compound, the GI50 in the test with K562 is 31.5 µM (inactive); in the test with SK-MEL-28 it was 35.2 µM (inactive); in the test on NCI-H226, 53.6 µM (inactive); with M14, 46.5 µM (inactive); in the test with HL-60 it was 29.2 µM (inactive); in the test with SF-295, 33.2 µM (inactive). The GI50 in the test on SN12C was 54.8 µM (inactive); with SF-268, 83.2 µM (inactive).
`CC(=C/C=C/C=C(C)\C=C\C=C(\C)C(=O)O)/C=C/C=C(/C)C(=O)O`: the GI50 in the test with IGROV-1, in the test on Hs-578T, in the test with NCI-H522, with HT-29, in the test with UO-31 and in the test on MDA-MB-231 was > 100 µM (inactive) each time. The GI50 in the test on HOP-62, in the test with BT-549, in the test on SF-539, with SW-620, with KM12 and with PC-3 was > 100 µM (inactive) each time. Further, the GI50 is > 100 µM (inactive) with K562; > 100 µM (inactive) in the test with SK-MEL-28; > 100 µM (inactive) in the test on NCI-H226; > 100 µM (inactive) in the test with M14; 25.5 µM (inactive) with HL-60; > 100 µM (inactive) with SF-295. Besides, the GI50 in the test with SN12C and in the test on SF-268 was > 100 µM (inactive) throughout.
Consider `O=C(c1cccnc1)N1N=C(c2ccc(Cl)cc2)CC1(O)c1cc(F)c(Cl)cc1Cl` (stereo not given), for which the GI50 was 1.65 µM (inactive) with IGROV-1; 29.4 µM (inactive) in the test with Hs-578T; 19.5 µM (inactive) in the test with NCI-H522; 14.8 µM (inactive) in the test with HT-29; 15.9 µM (inactive) in the test with UO-31; 15.1 µM (inactive) with MDA-MB-231. Besides, the GI50 with HOP-62 is 21.5 µM (inactive); in the test on BT-549, 24.6 µM (inactive); in the test on SF-539 it was 12.2 µM (inactive); in the test with SW-620 it was 22.2 µM (inactive); in the test on KM12, 28.8 µM (inactive); with PC-3 it was 12.9 µM (inactive). Besides, the GI50 is 16.6 µM (inactive) with K562; 23.6 µM (inactive) in the test on SK-MEL-28; 11.6 µM (inactive) with NCI-H226; 22 µM (inactive) in the test with M14; 15.1 µM (inactive) in the test with HL-60; 19.5 µM (inactive) in the test on SF-295. Further, the figures for the GI50 in the test with SN12C and in the test on SF-268 were 14.1 µM (inactive) and 19.2 µM (inactive), respectively.
With `[N-]=[N+]=Nc1cc(=O)n2c3c(cccc13)CCC2`, the GI50 with IGROV-1, in the test on Hs-578T, with NCI-H522, with HT-29, with UO-31 and in the test on MDA-MB-231 was > 100 µM (inactive) throughout. Besides, the GI50 in the test on HOP-62, with BT-549, in the test on SF-539, in the test on SW-620, in the test with KM12 and in the test with PC-3 was > 100 µM (inactive) throughout. Besides, the GI50 in the test with K562, in the test with SK-MEL-28, in the test with NCI-H226, with M14, with HL-60 and with SF-295 was > 100 µM (inactive) in each case. Also, the GI50 with SN12C and with SF-268 was > 100 µM (inactive) in each case.
Turning to `C=C(C)CNC(=S)N(N)c1ccc(OC)cc1`, the GI50 in the test with IGROV-1 was 58.6 µM (inactive); in the test on Hs-578T, > 100 µM (inactive); with NCI-H522 it was 56.1 µM (inactive); in the test with HT-29, 74.8 µM (inactive); with UO-31 it was 52.6 µM (inactive); in the test on MDA-MB-231, > 100 µM (inactive). Moreover, the GI50 in the test on HOP-62 was > 100 µM (inactive); with BT-549, > 100 µM (inactive); in the test on SF-539 it was > 100 µM (inactive); with SW-620, > 100 µM (inactive); in the test on KM12, 39.2 µM (inactive); with PC-3, > 100 µM (inactive). Also, the GI50 was 39.6 µM (inactive) in the test on K562; > 100 µM (inactive) in the test on SK-MEL-28; > 100 µM (inactive) in the test on NCI-H226; > 100 µM (inactive) in the test with M14; > 100 µM (inactive) in the test with HL-60; > 100 µM (inactive) in the test on SF-295. Moreover, the GI50 in the test on SN12C is 66.8 µM (inactive); in the test with SF-268, 55.3 µM (inactive).
`CCC(C)(C)c1ccc(OCCCCNC(=O)c2ccc3ccccc3c2O)c(C(C)(C)CC)c1`: the GI50 in the test on IGROV-1 was 31.2 µM (inactive); in the test with Hs-578T, 31.5 µM (inactive); in the test with NCI-H522 it was 14.6 µM (inactive); in the test on HT-29, 44.7 µM (inactive); in the test on UO-31, 29.3 µM (inactive); in the test with MDA-MB-231 it was 30 µM (inactive). The GI50 in the test with HOP-62 is 33 µM (inactive); with BT-549, 30.8 µM (inactive); in the test with SF-539, 33.1 µM (inactive); in the test with SW-620 it was 18.3 µM (inactive); with KM12, 44.8 µM (inactive); with PC-3, 6.08 µM (inactive). In addition, the GI50 was 4.54 µM (inactive) with K562; 13.6 µM (inactive) with SK-MEL-28; 12.6 µM (inactive) in the test on NCI-H226; 48.9 µM (inactive) with M14; 29.1 µM (inactive) with HL-60; 48.3 µM (inactive) in the test on SF-295. For the same compound, the figures for the GI50 in the test with SN12C and with SF-268 were 34.6 µM (inactive) and 22.7 µM (inactive), respectively.

For the origin of these results see ChEMBL document CHEMBL1201862, “PubChem BioAssay data set” (2004).
